Data set [1] deals with ADPRT. The note with it: cited from earlier work.
Data set [2] has as its system cells / HIV. Nature of the data set: Anti-tumor / anti-HIV (biological) action, general statement.
The conditions of data set [3]: not told.
Data set [4] has as its target calf thymus ADPRT (Bos taurus, UniProt P18493). Put plainly: ADPRT polymerase activity inhibition/inactivation (I50).
Method: The compounds of the subject invention were tested for their ability to inactivate the polymerase activity of adenosinediphosphoribosyl transferase (ADPRT). Assays were performed according to the method of Buki and Kun, Biochem. 27:5990-5995 (1988), using calf thymus ADPRT.
Assay conditions: ADPRT, 0.4 μg; coDNA, 4 μg; inhibitor diluted
between 0.8 and 600 μM, in 50 μl of 50 mM TrisHCl, 50 mM KCl, 5 mM
2mercaptoethanol, 0.5 mM EDTA, 0.1 mM NAD ([32Plabelled), pH 7.5.
Polymerization at 25° C. for 4 minutes.
In data set [5] the test system is normal rhesus bone marrow stem cells. Nature of the data set: CFU stem cell toxicity assay, FIG. 5A.
In data set [6] the test system is HIV-1. Put plainly: Anti-HIV action on stimulated human lymphoblasts, virus titer. Format: cell-based. The note with it: 30 min exposure, virus alone 5.25. The protocol:
VIII. Anti-HIV action of NOBP, NOBA and NOQ on stimulated human lymphoblasts
Exposure to the two drugs was only for 30 minutes at the commencement of viral infection, and drugs were never re-added. The results given in Table III provide the ID50 of HIV titer 10 days after infection of cell cultures with HIV.

Data set [7] concerns the target Zn(HIV1-F1), N-terminal CCHC zinc finger of the HIV-1 NC protein (Human immunodeficiency virus type 1 lw12.3 isolate, UniProt Q70622). The note with it: Summers, et al.; cited from earlier work.
Data set [8] deals with cancer cells (855-2 and HL-60 leukemia, D32, D37 and CRL 7712 glioblastoma, 186 medulla tumor, L1210 murine leukemia, MDA-468 human breast tumor). Put plainly: Functions of cancer cells in absence or presence of compounds (FIGS. 4-9). The class given is cell-based.
Method: (§1) Experiments were performed in which the functions of various cancer cells (855-2 and HL-60 leukemia cells, D32, D37 and CRL 7712 glioblastoma cell lines, 186 medulla tumor cell line, L1210 murine leukemia cell line, MDA-468 human breast tumor cell line) and normal cells (neutrophil leukocytes and bone marrow or peripheral blood stream cells) were assessed in the absence or presence of the compounds.
In data set [9] the test system is 855-2 leukemia cells. Nature of the data set: 855-2 growth inhibition, comparison with vincristine (FIG. 7). Format: cell-based, human. The protocol: Vincristine, a highly toxic chemotherapeutic compound, is currently used in the treatment of leukemia and other malignancies. […] Vincristine was tested in doses of 0.1, 1, 10 and 100 μM.
For data set [10], the system named is 855-2 cells. Put plainly: MTT assay, cytocidal activity. The settings on record: 10 μM, 100,000 cells/ml. The class given is cell-based, human. The protocol:
MTT (3-[4,5-[…]]-2,5-diphenyltetrazolium bromide) at 1 mg/ml was then added for 16 hours. The absorbance of the pelleted cell was then measured at 550 nm after adding DMSO to solubilze the cells.
For orientation: Tetrazolium dyes change colour on reduction, which living cells bring about.

Data set [11] has as its system 855-2 cells. Put plainly: Colony formation (CFU) in semi-solid medium, 855-2. The class given is cell-based, human. The note with it: single cells in semi-solid medium.
In data set [12] the test system is K562 cells. Put plainly: [3H]thymidine uptake, K562 cells. The class given is cell-based, human. The note with it: 10% fetal bovine serum.
Data set [13] relates to human leukemia cell lines (855-2, H9, HL-60, K562). Put plainly: [3H]thymidine uptake, human leukemia cell lines (FIG. 2). Format: cell-based. The protocol: FIGS. 2A-2F are composite of graphs displaying the inhibitory effects of the ADRPT ligands on (FIG. 2A) 855-2 cells (a cell line of human B-cell lineage acute lymphoblastic leukemia), (FIG. 2B) H9 cells (a cell line of human T-cell lineage acute lymphoblastic leukemia), (FIG. 2C) HL-60 cells (a cell line of human acute nonlymphoblastic leukemia) and (FIG. 2D) K562 cells (a cell line of human chronic myelogenous leukemia). These cells were cultured while under the influence of the growth factors in 10% fetal bovine serum (FCS), whereas in (FIG. 2E) and (FIG. 2F) the 855-2 cells were cultured in the presence of autocrine growth factor activity (AGF) or low molecular weight-B-cell growth factor (BCGF, a T-cell derived lymphokine), respectively.

The subject of data set [14] is human peripheral blood neutrophil leukocytes.
Data set [15] deals with 855-2 cells. Nature of the data set: [3H]thymidine uptake / growth, 855-2 cells. The class given is cell-based, human.
Data set [16] relates to normal cells (neutrophil leukocytes and bone marrow or peripheral blood stem cells).
Method: as §1
Data set [17] relates to H9 cells. Put plainly: [3H]thymidine uptake, H9 cells. The class given is cell-based, human. The settings on record: 10% FCS.
Data set [18] concerns normal human stem cells (PBSC). Nature of the data set: Colony formation (CFU-GM) of normal human stem cells (PBSC), FIG. 5B. The class given is cell-based. The note with it: 0, 2, 4, 8 and 10 μM.
For data set [19], the system named is HL-60 cells. Put plainly: Colony formation (CFU) in semi-solid medium, HL-60. The class given is cell-based, human. The note with it: single cells in semi-solid medium.
For data set [20], the system named is human peripheral blood neutrophil leukocytes. Put plainly: Superoxide generation by human neutrophils. The note with it: 10 μM; 10^5 PMN + PMA (control 55.9 ± 7.7).
For data set [21], the system named is malignant transformation / neoplasia. The note with it: in vitro and in vivo; Tseng, et al.; cited from earlier work.

Entries after “also recorded” stand apart in the source; their conditions may differ. Where two headings read alike, the source gives them in different places.

calf thymus ADPRT, sequence (P18493 whole entry): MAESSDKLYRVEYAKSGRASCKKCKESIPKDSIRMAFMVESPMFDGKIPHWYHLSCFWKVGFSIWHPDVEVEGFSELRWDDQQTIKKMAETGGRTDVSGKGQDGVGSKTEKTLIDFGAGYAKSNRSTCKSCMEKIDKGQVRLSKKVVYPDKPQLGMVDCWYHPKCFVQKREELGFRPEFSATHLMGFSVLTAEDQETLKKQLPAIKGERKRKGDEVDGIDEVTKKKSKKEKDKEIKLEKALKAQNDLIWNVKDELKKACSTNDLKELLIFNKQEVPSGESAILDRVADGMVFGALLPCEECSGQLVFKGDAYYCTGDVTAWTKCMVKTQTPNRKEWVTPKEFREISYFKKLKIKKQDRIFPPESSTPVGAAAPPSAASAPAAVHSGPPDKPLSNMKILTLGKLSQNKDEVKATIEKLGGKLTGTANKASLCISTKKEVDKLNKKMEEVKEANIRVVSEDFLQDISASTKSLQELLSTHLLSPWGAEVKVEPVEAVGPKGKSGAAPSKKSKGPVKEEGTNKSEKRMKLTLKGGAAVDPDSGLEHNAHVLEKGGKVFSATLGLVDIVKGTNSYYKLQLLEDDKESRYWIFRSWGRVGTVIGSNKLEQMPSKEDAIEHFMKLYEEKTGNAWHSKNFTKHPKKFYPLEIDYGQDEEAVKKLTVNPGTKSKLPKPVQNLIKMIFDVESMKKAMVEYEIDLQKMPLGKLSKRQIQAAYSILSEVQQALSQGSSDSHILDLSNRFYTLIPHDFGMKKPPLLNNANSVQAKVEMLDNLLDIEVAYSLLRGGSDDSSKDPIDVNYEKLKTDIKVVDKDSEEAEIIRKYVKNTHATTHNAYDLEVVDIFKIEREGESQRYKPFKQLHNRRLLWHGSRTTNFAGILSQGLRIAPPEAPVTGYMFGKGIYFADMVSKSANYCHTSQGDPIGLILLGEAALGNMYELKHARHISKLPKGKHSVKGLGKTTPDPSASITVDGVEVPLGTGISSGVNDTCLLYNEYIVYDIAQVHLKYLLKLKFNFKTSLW

Turning to 3-aminonaphthylhydrazide, the “inhibition of ADPRT polymerase activity, in words” value in data set [1] is reported as “known to inhibit ADPRT polymerase activity”.
By IC50 is commonly meant the midpoint of a concentration-inhibition curve. On to `O=Nc1ccc2oc(=O)ccc2c1I` [5-I-6-NO-1,2-benzopyrone, 5-iodo-6-nitroso-1,2-benzopyrone], for which, in data set [2] (vs 6-NO-1,2-benzopyrone), the “biological action relative to 6-NO-1,2-benzopyrone” value came to 10 times weaker. Also, the “permeation, in words” value in [3] was “poor permeant molecule”. Moreover, in data set [4], the “ADPRT inhibition, in words” value was “relatively poor inhibitor of ADRPT” and the IC50 amounted to 400 µM.
As for `Nc1ccc2oc(=O)ccc2c1` [ABP, 6-amino-1,2-benzopyrone], the “CFU stem cell toxicity, in words” value in [5] (1 mM) is recorded as “toxic at the tested given doses”. For the same molecule, the “Virus Titer (log ID50), 10 days” value in [6] (500 μM) is on record as 4.50 log ID50. Also, in [1] (site that also binds to DNA, Hakam, et al.), the “ADPRT binding, in words” value was “binds specifically to ADRPT at the site that also binds to DNA”. This molecule also returned an IC50 in data set [4] of 370 µM.
In the case of `O=C(O)CN(CCN(CC(=O)O)CC(=O)O)CC(=O)O` [EDTA], the “molar excess required to remove zinc from Zn(HIV-1-F1)” value in [7] is given as 10 -fold molar excess.
With `Nc1ccc2oc(=O)ccc2c1I` [IABP, 5-iodo-6-amino-1,2-benzopyrone], in data set [5] (250 μM), the “CFU stem cell toxicity, in words” value is given as “toxic at the tested given doses”. In addition, the “Virus Titer (log ID50), 10 days” value in [6] (250 μM) was 4.66 log ID50. Also, in data set [1], the “inhibition of ADPRT polymerase activity, in words” value was “known ADPRT polymerase activity inhibitors”. This molecule displayed a concentration for half-maximal inhibition (IC50) in data set [4] of 41 µM.
Regarding `O=c1ccc2cc([N+](=O)[O-])ccc2o1` [NO2 BP, 6-nitro-1,2-benzopyrone], the “Virus Titer (log ID50), 10 days” value in data set [6] (250 μM) turned out to be 4.93 log ID50. The “activity against tumor cells, in words” value is reported as “weakly active” in data set [8] and “almost ineffective (against tumor cells)” in data set [8] (listed as 6-nitro derivative).
The term inhibition denotes the drop in the measured response relative to a control, in per cent. Read a high inhibition as a strong effect. For `O=Nc1ccc2oc(=O)ccc2c1` [NOBP, 6-nitroso-1,2-benzopyrone], the “anti-tumor and anti-HIV activity, in words” value in [2] is “highly active as anti-tumor and anti-HIV molecules”. Also, in data set [2] (exposure as short as 30 minutes), the “effectiveness after short exposure of cells” value is given as “effective even after exposure of cells for a period as short as 30 minutes”. In addition, the “Virus Titer (log ID50), 10 days” value in data set [6] (10 μM) is 2.01 log ID50. Besides, the “potency relative to vincristine” value in data set [9] (vs equal concentration of vincristine) is “about 10 times more potent”. Moreover, the “killing of 855-2 cells (MTT), in words” value in data set [10] is on record as “complete killing”. Moreover, the “activity against tumor cells, in words” value in data set [8] was “highly effective (against tumor cells)”. Also, the “colony formation, 855-2, in words” value in [11] is “inhibit the ability of human leukemic cells (855-2 and HL-60) to form colonies”. The “inhibition of cell growth (thymidine uptake), K562” value in data set [12] (100 μM) is “almost complete inhibition”. Moreover, in data set [12], the “relative potency, K562” value is listed as “most potent inhibitors of cell growth; also recorded: almost as potent as NOQ”. In addition, the “inhibition of 3H-thymidine uptake, in words” value in [13] (10 μM, 855-2, H9, HL-60, K562 cells) is on record as “powerfully inhibited 3H-thymidine uptake”. The “molar concentrations needed to inhibit 3H-thymidine uptake, in words” value in data set [13] (each of the cell lines tested) is recorded as “able to inhibit 3H-thymidine uptake in lower molar concentrations than the other compounds”. The “superoxide generation, in words” value in data set [14] was “Only minor reductions in superoxide generation”. In addition, in data set [15] (1 μM, 10% fetal bovine serum), the “relative inhibition of thymidine uptake, 855-2” value is “somewhat more inhibition than NOBA”. Moreover, the “inhibition of thymidine uptake, 855-2” value in data set [15] (10 μM, 10% fetal bovine serum) is recorded as “almost complete inhibition”. For the same molecule, in data set [15] (10 μM, increasing FCS), the “growth arrest of 855-2 cells at increasing serum concentration” value is on record as “Growth arrest occurs irrespective of the concentration of FCS”. For the same molecule, in [15] (10% fetal bovine serum), the “relative potency, 855-2” value is “potent inhibitory effects regardless of the source of growth factor activity”. The same molecule had an IC50 in data set [4] of 40 µM. In data set [16], the “effect on normal stem cell colony formation (FIG. 5), in words” value is given as “minimal effect on normal cells”; the “effect on viability of normal cells, in words” value is “not to affect adversely the viability of normal cells”; the “toxicity to normal cells, in words” value is reported as “not toxic to normal cells”. For the same molecule, in data set [17] (100 μM), the “inhibition of thymidine uptake, H9” value is “almost complete inhibition”. This molecule also registered an inhibition at 10 µM in [17] (Homo sapiens, H9, 10 μM) of around 30%. In [18], the “cytotoxicity on CFU-GM of PBSC, in words” value was “Toxicity was not detected”. The “colony formation, HL-60, in words” value in data set [19] was “inhibit the ability of human leukemic cells (855-2 and HL-60) to form colonies”. In data set [20], the “superoxide generation by human neutrophils (mean + S.D., n = 11)” value was 34.1 ± 14.1 nmol O2^- /hr/10^5 cells.
Consider `NC(=O)c1ccccc1` [benzamide], for which the “inhibition of ADPRT polymerase activity, in words” value in data set [1] is reported as “known to inhibit ADPRT polymerase activity”.
With `O=c1ccc2ccccc2o1` [coumarin (1,2-benzopyrone), 1,2-benzopyrone], the “anti-transforming and anti-neoplastic effect, in words” value in data set [21] is “anti-transforming and anti-neoplastic effect”. Also, the “inhibition of ADPRT polymerase activity, in words” value in data set [1] was “known to inhibit ADPRT polymerase activity”; in data set [1] (listed as 1,2-benzopyrone (coumarin)), “inhibitory ligand of adenosinediphosphoribosyl transferase (ADPRT)”.
As for `c1ccc2cnccc2c1` [isoquinoline], the “inhibition of ADPRT polymerase activity, in words” value in [1] is recorded as “known to inhibit ADPRT polymerase activity”.
With `O=c1c(O)c(-c2ccc(O)c(O)c2)oc2cc(O)cc(O)c12` [quercetin], the “inhibition of ADPRT polymerase activity, in words” value in data set [1] was “known to inhibit ADPRT polymerase activity”.
For the molecule `CC[C@]1(O)C[C@H]2CN(CCc3c([nH]c4ccccc34)[C@@](C(=O)OC)(c3cc4c(cc3OC)N(C=O)[C@H]3[C@@](O)(C(=O)OC)[C@H](OC(C)=O)[C@]5(CC)C=CCN6CC[C@]43[C@@H]65)C2)C1` [vincristine, reference compound], in data set [9] (in vitro), the “concentration required to produce the same level of inhibition as 10 μM NOBP” value came out at 100 µM.
